Experimental data as given in ChEMBL document CHEMBL4020792, “Sialidase inhibitory activity of diarylnonanoid and neolignan compounds extracted from the seeds of Myristica fragrans” (Bioorg Med Chem Lett, 2017).

What was measured:
[1] = target: Sialidase A (Streptococcus pneumoniae) (UniProt P62575); assay: (§1) Inhibition of Streptococcus pneumoniae sialidase NanA using 4-methylumbelliferyl-alpha-D-N-acetylneuraminic acid as substrate after 60 mins by FRET assay
[2] = target: T1, Sialidase A (Streptococcus pneumoniae, UniProt P62575); assay: as §1
[3] = test system: Streptococcus pneumoniae; assay: (§2) Inhibition of Streptococcus pneumoniae sialidase NanB using 4-methylumbelliferyl-alpha-D-N-acetylneuraminic acid as substrate after 60 mins by FRET assay
[4] = as §2
[5] = target: T1, Sialidase A; assay: Noncompetitive inhibition of Streptococcus pneumoniae sialidase NanA using 4-methylumbelliferyl-alpha-D-N-acetylneuraminic acid as substrate after 60 mins by Lineweaver-Burk plot/Dixon plot analysis
[6] = test system: Streptococcus pneumoniae; assay: (§3) Inhibition of Streptococcus pneumoniae sialidase NanC using 4-methylumbelliferyl-alpha-D-N-acetylneuraminic acid as substrate after 60 mins by FRET assay
[7] = as §3
[8] = Noncompetitive inhibition of Streptococcus pneumoniae sialidase NanC using 4-methylumbelliferyl-alpha-D-N-acetylneuraminic acid as substrate after 60 mins by Lineweaver-Burk plot/Dixon plot analysis
[9] = Noncompetitive inhibition of Streptococcus pneumoniae sialidase NanB using 4-methylumbelliferyl-alpha-D-N-acetylneuraminic acid as substrate after 60 mins by Lineweaver-Burk plot/Dixon plot analysis
[10] = target: T1, Sialidase A; assay: Competitive inhibition of Streptococcus pneumoniae sialidase NanA using 4-methylumbelliferyl-alpha-D-N-acetylneuraminic acid as substrate after 60 mins by Lineweaver-Burk plot/Dixon plot analysis

Sialidase A (Streptococcus pneumoniae), sequence (P62575 whole entry): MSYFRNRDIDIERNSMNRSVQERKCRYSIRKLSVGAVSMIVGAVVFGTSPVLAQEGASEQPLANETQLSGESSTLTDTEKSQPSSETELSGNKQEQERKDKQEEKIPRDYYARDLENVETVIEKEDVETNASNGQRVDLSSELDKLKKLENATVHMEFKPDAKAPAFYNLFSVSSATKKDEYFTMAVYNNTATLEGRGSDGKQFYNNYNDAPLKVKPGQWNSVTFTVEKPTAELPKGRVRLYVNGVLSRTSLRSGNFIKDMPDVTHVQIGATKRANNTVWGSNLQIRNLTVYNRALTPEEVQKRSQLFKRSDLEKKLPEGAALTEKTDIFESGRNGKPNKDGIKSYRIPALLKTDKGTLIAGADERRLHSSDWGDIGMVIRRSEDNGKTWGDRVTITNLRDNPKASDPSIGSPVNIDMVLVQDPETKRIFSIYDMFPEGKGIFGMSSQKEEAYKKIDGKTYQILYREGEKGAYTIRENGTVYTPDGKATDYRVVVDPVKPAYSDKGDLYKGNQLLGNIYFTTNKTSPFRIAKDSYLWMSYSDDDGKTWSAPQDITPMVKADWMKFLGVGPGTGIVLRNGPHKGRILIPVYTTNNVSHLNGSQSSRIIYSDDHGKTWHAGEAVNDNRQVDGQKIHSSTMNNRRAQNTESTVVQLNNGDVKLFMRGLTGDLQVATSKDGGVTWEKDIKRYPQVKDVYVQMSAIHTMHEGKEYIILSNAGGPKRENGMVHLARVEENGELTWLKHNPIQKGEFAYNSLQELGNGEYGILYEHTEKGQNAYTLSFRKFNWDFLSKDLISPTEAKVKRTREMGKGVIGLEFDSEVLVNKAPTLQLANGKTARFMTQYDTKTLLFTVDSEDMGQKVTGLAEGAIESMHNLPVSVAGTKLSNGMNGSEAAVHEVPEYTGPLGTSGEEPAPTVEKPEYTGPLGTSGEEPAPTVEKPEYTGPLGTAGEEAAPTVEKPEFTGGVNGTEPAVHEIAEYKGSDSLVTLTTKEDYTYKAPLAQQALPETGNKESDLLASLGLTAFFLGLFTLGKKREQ
T1 sequence (P62575 whole entry): as above

Structure (SMILES): COc1cc([C@H]2O[C@@H](c3ccc(O)c(OC)c3)[C@@H](C)[C@@H]2C)ccc1O
- inhibition [1]: Dose-dependent effect
- IC50 [2]: 37.2 µM
- inhibition [3]: Dose-dependent effect
- IC50 ([4]; read-out: IC50): 331 µM
- Ki [5]: 21.9 µM
- inhibition [6]: Dose-dependent effect
- IC50 ([7]; read-out: IC50): 274 µM

Structure (SMILES): C=CCc1cc(OC)c(O)c(OC)c1 [METHOXYEUGENOL]
- inhibition [1]: Dose-dependent effect
- IC50 [2]: 6.9 µM
- Ki [8]: 30.2 µM
- inhibition [3]: Dose-dependent effect
- IC50 ([4]; read-out: IC50): 77.6 µM
- Ki [5]: 4.2 µM
- inhibition [6]: Dose-dependent effect
- IC50 ([7]; read-out: IC50): 33.6 µM

Structure (SMILES): C=CCc1cc(O)c(OC)c(O)c1
- inhibition [1]: Dose-dependent effect
- IC50 [2]: 2 µM
- Ki [8]: 91.8 µM
- inhibition [3]: Dose-dependent effect
- IC50 ([4]; read-out: IC50): 27.1 µM
- Ki [5]: 4.9 µM
- inhibition [6]: Dose-dependent effect
- IC50 ([7]; read-out: IC50): 60.5 µM
- Ki [9]: 74 µM

Structure (SMILES): O=C(CCCCCCCCc1ccc(O)c(O)c1)c1c(O)cccc1O [MALABARICONE C]
- inhibition [1]: Dose-dependent effect
- IC50 [2]: 0.3 µM
- Ki [8]: 2.1 µM
- inhibition [3]: Dose-dependent effect
- IC50 ([4]; read-out: IC50): 3.6 µM
- inhibition [6]: Dose-dependent effect
- IC50 ([7]; read-out: IC50): 2.9 µM
- Ki [10]: 0.1 µM
- Ki [9]: 3 µM

Structure (SMILES): COc1cc([C@@H](O)[C@@H](C)Oc2c(OC)cc(/C=C/CO)cc2OC)ccc1O
- inhibition [1]: Dose-dependent effect
- IC50 [2]: 1.6 µM
- Ki [8]: 37.8 µM
- inhibition [3]: Dose-dependent effect
- IC50 ([4]; read-out: IC50): 20.9 µM
- Ki [5]: 3 µM
- inhibition [6]: Dose-dependent effect
- IC50 ([7]; read-out: IC50): 24.6 µM
- Ki [9]: 39.2 µM

Structure (SMILES): C/C=C/c1cc(OC)c2c(c1)[C@H](C)[C@@H](c1ccc3c(c1)OCO3)O2 [(-)-LICARIN B]
- inhibition [1]: Dose-dependent effect
- IC50 [2]: 1.5 µM
- Ki [8]: 12.1 µM
- inhibition [3]: Dose-dependent effect
- IC50 ([4]; read-out: IC50): 14 µM
- Ki [5]: 1.3 µM
- inhibition [6]: Dose-dependent effect
- IC50 ([7]; read-out: IC50): 30.7 µM
- Ki [9]: 13.5 µM

Structure (SMILES): C=CCc1cc(OC)c(O[C@H](C)[C@H](OC(C)=O)c2ccc(OC)c(OC)c2)c(OC)c1
- IC50 [2]: 295 µM
- IC50 [4]: Not Active
- IC50 [7]: Not Active

Structure (SMILES): C/C=C/c1cc(OC)c2c(c1)[C@H](C)[C@@H](c1ccc(O)c(OC)c1)O2 [LICARIN A]
- inhibition [1]: Dose-dependent effect
- IC50 [2]: 7.9 µM
- inhibition [3]: Dose-dependent effect
- IC50 ([4]; read-out: IC50): 95.8 µM
- Ki [5]: 9.4 µM
- inhibition [6]: Dose-dependent effect
- IC50 ([7]; read-out: IC50): 113 µM

Structure (SMILES): O=C(CCCCCCCCc1ccc(O)cc1)c1c(O)cccc1O [MALABARICONE B]
- inhibition [1]: Dose-dependent effect
- IC50 [2]: 0.4 µM
- Ki [8]: 5.8 µM
- inhibition [3]: Dose-dependent effect
- IC50 ([4]; read-out: IC50): 5.7 µM
- inhibition [6]: Dose-dependent effect
- IC50 ([7]; read-out: IC50): 14.3 µM
- Ki [10]: 0.5 µM
- Ki [9]: 5.6 µM

Structure (SMILES): C=CCc1cc(OC)c(O[C@@H](C)[C@H](O)c2ccc(O)c(OC)c2)c(OC)c1
- inhibition [1]: Dose-dependent effect
- IC50 [2]: 25.6 µM
- inhibition [3]: Dose-dependent effect
- IC50 ([4]; read-out: IC50): 229 µM
- Ki [5]: 15.1 µM
- inhibition [6]: Dose-dependent effect
- IC50 ([7]; read-out: IC50): 103 µM

Structure (SMILES): C/C=C/c1cc(OC)c2c(c1)[C@H](C)[C@@H](c1cc(OC)c3c(c1)OCO3)O2
- inhibition [1]: Dose-dependent effect
- IC50 [2]: 44.2 µM
- inhibition [3]: Dose-dependent effect
- IC50 ([4]; read-out: IC50): 92.1 µM
- Ki [5]: 47.5 µM
- inhibition [6]: Dose-dependent effect
- IC50 ([7]; read-out: IC50): 317 µM
